Test results published in article PMC5626011 (Bioorganic & Medicinal Chemistry Letters, 2017).

Experiments:
EBOV (Makona) = format: cell-based, Ebola virus (EBOV)
SUDV (Gulu) = format: cell-based, Sudan virus (SUDV)
MARV (Ci67) = format: cell-based, Marburg virus (MARV)
[1] = test system: recombinant Ebola virus Makona expressing ZsGreen (rEBOV/ZsG); format: cell-based

Compound | EBOV EC50 (EBOV (Makona)) | SUDV EC50 (SUDV (Gulu)) | MARV EC50 (MARV (Ci67)) | EC50 ([1]; read-out: EBOV EC50) | fold less potent than compound 1 [1]
COc1nc(N)ncc1-c1cn(COCCO)cn1 [compound 1] | no detectable activity | no detectable activity | no detectable activity | 2200 ± 300 nM | 
CCC(CC)COC(=O)[C@H](C)N[P@](=O)(OCCOCn1cnc(-c2cnc(N)nc2OC)c1)Oc1ccccc1 [compound 3] |  |  |  |  | ~10 fold
